Data set [1] concerns HEK293F cells. The data set is described as follows: Transient gene expression in HEK293F cells: cell specific productivity of the expressed antibody. The format is cell-based, human. The conditions noted are these: for specific productivity after 96 hours: none 2.01. As to the method:
HEK293F cells were cultivated in F17 medium (Life Technologies) in shaker flasks at 36.5° C., 7.0% CO2 and 80% humidity in a shaker incubator (Kuhner, Mytron). Cells were split every three to four days and were cultivated no longer than five weeks. To avoid overgrowth and to keep them in the exponential phase of growth, viable cell densities (VCD) never exceeded 60*10^5 cells/mL.
(§1) Transient gene expression is a 5-7 days lasting procedure. The standard operating procedure of this expression system is applicable to shaker flasks with various volumes of cell culture ranging from 80 mL to 2 L. First, half of the cell culture volume is seeded at a viable cell density (VCD) of 8*10^5 cells/mL. After two days of cultivation, cells are split to a VCD of about 12*10^5 cells/mL. On the next day, cells are transfected with a polyethylene imine (PEI)-based transfection reagent at a VCD between 20*10^5 cells/mL and 25*10^5 cells/mL. 3 hours after transfection, the production enhancer (if any) is added. 24 h after transfection, a feeding solution and a glucose bolus is supplemented to avoid the limitation of nutrients. Depending on cell viability, which should not decrease below 50%, the supernatant is harvested five to seven days post transfection and subjected to antibody purification.
(§2) To compare transient gene expression rates always the same plasmids encoding for one distinct antibody were co-transfected.
(§3) To co-transfect two plasmids equimolarily, the ratio of the base pair number of one plasmid to the total base pair number was calculated and multiplied with the total amount of DNA (0.5 mg/L). Plasmid one has a size of 10530 bp and plasmid two has a size of 7184 bp and were solved in water to a final concentration of 1 mg/mL. For transfection of one liter cell culture, 297 μL of plasmid one and 203 μl of plasmid two were dissolved in 40 mL phosphate buffered saline (PBS) at room temperature. 1.25 mL JetPEI® solution was added and the solution was mixed well. After incubation for 10-15 min., the mixture was added to the cells. The cells were transfected in a batch containing the whole cell culture necessary for every experiment to avoid variance arising from different transfection efficiencies.
(§4) 80 mL of the transfected cell culture batch was added to a 125 ml shaker flask. For every experiment, two or three 125 mL shaker flasks were used as biological replicates and treated the same way. Three hours after transfection, cells were split into 125 mL shaker flasks and the cellular treatments with small molecules or ligands were started. Basal protein expression was determined by untreated control samples. To compare samples with the standard operating procedure, cells were also treated with VPA to a final concentration of 4 mM or 3 mM. VPA and its analogues were dissolved in double distilled water. […] Tumor necrosis factor (TNF) alpha was reconstituted with PBS supplemented with 0.1% BSA. Flagellin was dissolved in sterile double distilled water. The applied molecules were not added to the cultivation directly, but diluted in 16 mL medium pre-warmed to 36.5° C. and added to the cultivation thereafter.
(§5) 24 h after transfection a feeding solution at 36.5° C. and 3 mg/mL glucose were added to the cultivation.
(§6) To determine cell viability and viable cell density (VCD) 1 mL cultivation medium (cell suspension) was transferred into a Cedex low fouling sample cup. The cup was placed into a Vicell instrument (Beckman Coulter). The instrument mixes cells with trypan blue to stain dead cells. After analysis of 50 images VCD was calculated and viability was determined by calculation of the percentage of viable cell number in relation to the total cell number.
Total concentration of the transiently expressed antibody was determined by a turbidimetric test. One mL cell suspension was transferred into an Eppendorf cup and centrifuged for 10 min. at 10,000 rpm (9,300 g).

Data set [2] concerns HEK293F cells. As to the kind of experiment: Transient gene expression in HEK293F cells: IgG concentration / titer (turbidimetric test). Format: cell-based, human. As to the method:
as §1, §2, §3, §4, §5
Total concentration of the transiently expressed antibody was determined by a turbidimetric test. One mL cell suspension was transferred into an Eppendorf cup and centrifuged for 10 min. at 10,000 rpm (9,300 g). The supernatant was transferred into a new cup and subjected to Cobas Integra 400 plus (Roche) analysis. With comparison to internal standard the absolute concentration was calculated.

Data set [3] relates to HDAC. As to the kind of experiment: in situ HDAC activity fluorimetric assay in HEK293F cells. The format is cell-based, human. As to the method:
HDAC activity was determined by the in situ HDAC activity fluorimetric assay kit (Biovision) according to the manufacturer's instructions. HEK293F cells were suspended in F17 medium (Life Technologies) to a cell density of 5*10^5 cells/mL. One hundred micro liter culture was pipetted per well into a black ELISA plate. The plate was centrifuged at 1000 g for 5 min. The supernatant was discarded and the cells were resuspended in a reaction mix containing F17 medium, 1% HDAC substrate and the molecule tested towards HDAC inhibitory activity. 10 μM Trichostatin A was used as a positive control and the basal HDAC activity was determined by re-suspending the cells in F17 medium with 1% HDAC substrate. Furthermore, cells were resuspended in F17 medium without HDAC substrate as a background control. The HDAC activity assay was performed in triplicates for every sample as well as every control. The 96-well plate was incubated at 36.5° C., 80% humidity and 7% CO2 for one hour. During this time, the active HDACs deacetylate the HDAC substrate what releases the quenched fluorescent signal of the substrate. After incubation the fluorescent signal was analyzed by the infinite fluorescence plate reader (TECAN). The fluorescence signal of the samples and controls was normalized by subtracting the fluorescence signal of the background control. It is assumed that the fluorescent signal arising from deacetylation of the substrate directly correlates with HDAC activity.

Data set [4] relates to HEK293F cells. The format is cell-based. As to the method:
as §6

The test system of data set [5] is HDAC. The following applies: description from the literature; cited from earlier work.

Read-outs that look alike come from different tables or passages of the source.

For `CCCC(CCC)C(=O)O` [valproic acid, 2-propylpentanoic acid], the “cell specific productivity with BAY11-7082 addition compared to the single treatment” value in data set [1] (15 μM BAY11-7082 added 24 h after transfection) is given as “significantly reduced”. Also, the “specific productivity after 96 hours” value in data set [1] (3 mM, single treatment, N=3) is 4.92 pg/cell/day. Besides, the activity at 500 µM in data set [1] (Homo sapiens, HEK293F, 0.5 mM, sole enhancer, control=100, N=2, FIG. 1, read-out: relative cell specific productivity) came out at 184%. Besides, the activity at 1000 µM in data set [1] (Homo sapiens, HEK293F, 1 mM, sole enhancer, control=100, N=2, FIG. 1, read-out: relative cell specific productivity) came to 204%. Besides, the activity at 2000 µM in data set [1] (Homo sapiens, HEK293F, 2 mM, VPA/2M2P combination study, none=100, N=3, read-out: relative cell specific productivity) amounted to 278%; in data set [1] (Homo sapiens, HEK293F, 2 mM, VPA/Quisinostat combination study, none=100, N=3, read-out: relative cell specific productivity) it was 278%; in data set [1] (Homo sapiens, HEK293F, 2 mM, sole enhancer, control=100, N=2, FIG. 1, read-out: relative cell specific productivity), 246%. Moreover, the activity at 3000 µM is 237% in data set [1] (Homo sapiens, HEK293F, 3 mM, single treatment, none=100, N=3, read-out: relative cell specific productivity); 284% in data set [1] (Homo sapiens, HEK293F, 3 mM, sole enhancer, control=100, N=2, FIG. 1, read-out: relative cell specific productivity); 316% in data set [1] (Homo sapiens, HEK293F, 3 mM, transfected control=100, N=3, FIG. 3B, read-out: relative cell specific productivity). The activity at 4000 µM in data set [1] (Homo sapiens, HEK293F, 4 mM, sole enhancer, control=100, N=2, FIG. 1, read-out: relative cell specific productivity) is 273%; in data set [1] (Homo sapiens, HEK293F, employed concentration 4 mM, none=100, N=2, FIG. 2B, read-out: relative cell specific productivity) it was 326%; in data set [1] (Homo sapiens, HEK293F, employed concentration 4 mM, none=100, N=2, FIG. 4, read-out: relative cell specific productivity) it was 315%. The activity at 6000 µM in data set [1] (Homo sapiens, HEK293F, 6 mM, sole enhancer, control=100, N=2, FIG. 1, read-out: relative cell specific productivity) was 223%. The “Mean cell specific productivity” value in data set [1] (conc. 3 mM, untreated 1.71) is reported as 5.4 (3 mM) pg/cell/24 h. In addition, in data set [1] (summary table, in words), the “Effect on titer/SPR” value is reported as “strong”. For the same molecule, the “relative IgG concentration” value in data set [2] (2 mM, VPA/2M2P combination study, none=100, N=3) was 217%; in data set [2] (2 mM, VPA/Quisinostat combination study, none=100, N=3), 217%; in data set [2] (4 mM, none=100, N=3, FIG. 6B), 173%; in data set [2] (4 mM, none=100, N=3, FIG. 8B), 173%; in data set [2] (4 mM, none=100, N=3, FIG. 9B), 173%. In data set [2] (3 mM, none 39.8, N=3), this molecule gave a final titer of 68.8 mg/L. The relative titer in data set [2] (3 mM, none=100, N=1) is 188%. This molecule also showed an HDACi in data set [3] (3 mM, N=3, FIG. 3A) of 58%. The HDAC inhibition entry in data set [3] (yes/no, summary table) is “yes”. For the same molecule, the “growth inhibition and cell death” value in data set [4] (in contrast to other HDACi tested) was “induce growth inhibition and cell death”.

As for `CCCC(CCC)C(N)=O` [valpromide], the TGE enhancement result in data set [1] (2 mM, in words) is listed as “Weak TGE enhancement”. In addition, the activity at 2000 µM in data set [1] (Homo sapiens, HEK293F, employed concentration 2 mM, none=100, N=2, FIG. 4, read-out: relative cell specific productivity) was 155%. For the same molecule, the activity at 3000 µM in data set [1] (Homo sapiens, HEK293F, employed concentration 3 mM, none=100, N=2, FIG. 4, read-out: relative cell specific productivity) turned out to be 0%. In data set [4] (3 mM), the cytotoxicity entry is “cytotoxic”. Besides, the “toxicity (remark in productivity cell)” value in data set [4] (employed concentration 3 mM) was “toxic”. Moreover, the HDAC inhibitory activity result in data set [5] is listed as “very weak to no HDAC inhibitory activity”.

B1: Flagellin: Flagellin from Salmonella typhimurium, TLR5 agonist, NFκB activator (protein, UniProt P06179 2-495, looked up)
Flagellin: AQVINTNSLSLLTQNNLNKSQSALGTAIERLSSGLRINSAKDDAAGQAIANRFTANIKGLTQASRNANDGISIAQTTEGALNEINNNLQRVRELAVQSANSTNSQSDLDSIQAEITQRLNEIDRVSGQTQFNGVKVLAQDNTLTIQVGANDGETIDIDLKQINSQTLGLDTLNVQQKYKVSDTAATVTGYADTTIALDNSTFKASATGLGGTDQKIDGDLKFDDTTGKYYAKVTVTGGTGKDGYYEVSVDKTNGEVTLAGGATSPLTGGLPATATEDVKNVQVANADLTEAKAALTAAGVTGTASVVKMSYTDNNGKTIDGGLAVKVGDDYYSATQNKDGSISINTTKYTADDGTSKTALNKLGGADGKTEVVSIGGKTYAASKAEGHNFKAQPDLAEAAATTTENPLQKIDAALAQVDTLRSDLGAVQNRFNSAITNLGNTVNNLTSARSRIEDSDYATEVSNMSRAQILQQAGTSVLAQANQVPQNVLSLLR
Consider B1, for which the “relative cell specific productivity” value in data set [1] (2 ng/mL, none=100, N=3, FIG. 6A) was 135%; in data set [1] (2 ng/mL, none=100, N=3, FIG. 8A), 135%; in data set [1] (2 ng/mL, single treatment, none=100, N=3), 134%; in data set [1] (10 ng/mL, none=100, N=2, FIG. 5), 154%. In addition, the “specific productivity after 96 hours” value in data set [1] (2 ng/mL, single treatment, N=3) was found to be 2.27 pg/cell/day. The “TGE enhancement after BAY11-7082 treatment compared to the corresponding single treatment” value in data set [1] (BAY11-7082 added 24 hours after stimulation) is recorded as “significantly reduced”. The “relative IgG concentration” value was determined as 133% in data set [2] (2 ng/mL, none=100, N=3, FIG. 6B) and 128% in data set [2] (2 ng/mL, none=100, N=3, FIG. 8B). In addition, the toxicity result in data set [4] (compared amongst NFκB activators) was “mildest toxicity”.

The values are drawn from patent US10745731B2, “Recombinant production method” (Hoffmann-La Roche Inc., priority 2015, dated 2020).
